Tests used:
Experiment in all cases: relative viability (nuclei count vs DMSO), 5 days (fraction); higher = more cells survive
[1] = compound: Cn1nnc2c(C(N)=O)ncn2c1=O [Temozolomide] + CC(C)C[C@H](NC(=O)[C@H](Cc1ccccc1)NC(=O)c1cnccn1)B(O)O [Bortezomib] (partner 0.002 µM)
Outline: (§1)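 A single step with final 0.05% Triton X-100, 1% formaldehyde and 1 ug/ml Hoechst fixed the cells and stained nuclei 5 days after treatment. Lung cancer cell lines in 1536-well plates had been treated by pin tool the day after seeding with one drug alone or a fixed anchor-drug dose plus five library-drug doses (not always all listed) in √10 steps, and nuclei were counted on 4× images. Relative viability is the ratio of nuclei in treated wells to nuclei in vehicle wells, taken as the median of duplicate plates.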

AZD5582 + Phenformin = compound: C[C@@H](C(=O)N[C@@H](C1CCCCC1)C(=O)N2CCC[C@H]2C(=O)N[C@@H]3[C@@H](CC4=CC=CC=C34)OCC#CC#CCO[C@@H]5CC6=CC=CC=C6[C@@H]5NC(=O)[C@@H]7CCCN7C(=O)[C@H](C8CCCCC8)NC(=O)[C@H](C)NC)NC [AZD5582] + N=C(N)NC(=N)NCCc1ccccc1 [Phenformin] (partner 250 µM)
Outline: as §1

AZD5582 + Tozasertib = compound: C[C@@H](C(=O)N[C@@H](C1CCCCC1)C(=O)N2CCC[C@H]2C(=O)N[C@@H]3[C@@H](CC4=CC=CC=C34)OCC#CC#CCO[C@@H]5CC6=CC=CC=C6[C@@H]5NC(=O)[C@@H]7CCCN7C(=O)[C@H](C8CCCCC8)NC(=O)[C@H](C)NC)NC [AZD5582] + Cc1cc(Nc2cc(N3CCN(C)CC3)nc(Sc3ccc(NC(=O)C4CC4)cc3)n2)n[nH]1 [Tozasertib] (partner 0.1 µM)
Outline: as §1

Temozolomide + Lapatinib = compound: Cn1nnc2c(C(N)=O)ncn2c1=O [Temozolomide] + CS(=O)(=O)CCNCc1ccc(-c2ccc3ncnc(Nc4ccc(OCc5cccc(F)c5)c(Cl)c4)c3c2)o1 [Lapatinib] (partner 2 µM)
Outline: as §1

| Cell Line | relative viability ([1]; first compound 0.2 µM) | relative viability ([1]; first compound 0.6325 µM) | relative viability ([1]; first compound 2 µM) | relative viability ([1]; first compound 6.325 µM) | relative viability ([1]; first compound 20 µM) | relative viability (AZD5582 + Phenformin; first compound 0.001581 µM) | relative viability (AZD5582 + Phenformin; first compound 0.005 µM) | relative viability (AZD5582 + Phenformin; first compound 0.05 µM) | relative viability (AZD5582 + Tozasertib; first compound 0.001581 µM) | relative viability (AZD5582 + Tozasertib; first compound 0.005 µM) | relative viability (AZD5582 + Tozasertib; first compound 0.05 µM) | relative viability (AZD5582 + Phenformin; first compound 0.01581 µM) | relative viability (AZD5582 + Tozasertib; first compound 0.01581 µM) | relative viability (Temozolomide + Lapatinib; first compound 0.2 µM) | relative viability (Temozolomide + Lapatinib; first compound 0.6325 µM) | relative viability (Temozolomide + Lapatinib; first compound 2 µM) | relative viability (Temozolomide + Lapatinib; first compound 6.325 µM) | relative viability (Temozolomide + Lapatinib; first compound 20 µM) |
| --- | --- | --- | --- | --- | --- | --- | --- | --- | --- | --- | --- | --- | --- | --- | --- | --- | --- | --- |
| NCI-H441 | 0.88 | 0.336 | 0.722 | 0.363 | 0.44 | 0.621 | 0.799 | 0.674 | 0.581 | 0.653 | 0.587 | – | – | – | – | – | – | – |
| NCI-H522 | – | – | – | – | – | 0.635 | 0.643 | 0.65 | 0.592 | 0.491 | 0.524 | 0.649 | 0.594 | – | – | – | – | – |
| NCI-H1299 | 1.07 | 1.06 | 1.04 | 1.02 | 1.02 | – | – | – | – | – | – | – | – | 1.03 | 0.98 | 0.994 | 0.97 | 0.962 |
| NCI-H1395 | – | – | – | – | – | 0.5 | 0.476 | 0.45 | 0.703 | 0.714 | 0.797 | 0.412 | 0.81 | 1.07 | 1.19 | 1.5 | 0.903 | 0.968 |
| NCI-H1563 | 0.91 | 0.862 | 0.911 | 0.878 | 0.833 | 0.641 | 0.665 | 0.627 | – | – | – | 0.574 | – | 0.889 | 0.89 | 0.993 | 0.859 | 1 |
| NCI-H1623 | – | – | – | – | – | 0.565 | 0.61 | 0.46 | 0.441 | 0.455 | 0.432 | 0.565 | 0.444 | – | – | – | – | – |
| NCI-H1648 | – | – | – | – | – | – | – | – | – | 0.549 | 0.615 | – | 0.37 | – | – | – | – | – |
| NCI-H1792 | 0.969 | 0.988 | 1.01 | 0.641 | 0.953 | – | 0.323 | 1.12 | – | – | – | – | – | 1.06 | 0.973 | 0.895 | 0.899 | 0.861 |
| NCI-H1793 | – | – | – | – | – | 0.295 | 0.404 | 0.264 | 0.241 | 0.486 | 0.454 | 0.306 | 0.303 | – | 0.81 | 0.608 | 0.649 | 0.694 |
| NCI-H1944 | – | – | – | – | – | 0.176 | 0.227 | 0.286 | 0.226 | 0.25 | 0.297 | 0.193 | 0.266 | 0.835 | 0.831 | 0.871 | 0.843 | 0.799 |
| NCI-H2170 | – | – | – | – | – | 0.38 | 0.455 | 0.409 | 0.647 | 0.716 | 0.829 | 0.36 | 0.746 | – | 0.28 | 0.295 | 0.264 | 0.247 |
| NCI-H2342 | – | – | – | – | – | 0.551 | 0.556 | 0.634 | 0.493 | 0.585 | 0.542 | 0.528 | 0.43 | – | – | – | – | – |
| SK-MES-1 | – | – | – | – | – | 0.6 | 0.678 | 0.655 | 0.771 | 0.785 | 0.805 | 0.649 | 0.888 | 0.478 | 0.466 | 0.463 | 0.505 | 0.458 |
| SW 900 | – | – | – | – | – | 0.502 | 0.632 | 0.401 | 0.481 | 0.365 | 0.468 | 0.414 | 0.722 | – | – | – | – | – |
